Test results: paper PMC8262356, “SLC26A6-selective inhibitor identified in a small-molecule screen blocks fluid absorption in small intestine” (JCI Insight, 2021)

Tests used:
slc26a1 = target: T1, slc26a1 (Mus musculus, UniProt P58735); test: Selectivity: Cl-/I- exchange in 293T/17 cells transfected with slc26a1 and YFP; type: cell-based; conditions: 25 μM, 10 min preincubation
T1 construct: expressed in transfected cells; host or cells: 293 T/17 cells, transient transfection with pIRES-HIF vector (IRES-YFP, not fused)
T1 sequence (P58735 1-704): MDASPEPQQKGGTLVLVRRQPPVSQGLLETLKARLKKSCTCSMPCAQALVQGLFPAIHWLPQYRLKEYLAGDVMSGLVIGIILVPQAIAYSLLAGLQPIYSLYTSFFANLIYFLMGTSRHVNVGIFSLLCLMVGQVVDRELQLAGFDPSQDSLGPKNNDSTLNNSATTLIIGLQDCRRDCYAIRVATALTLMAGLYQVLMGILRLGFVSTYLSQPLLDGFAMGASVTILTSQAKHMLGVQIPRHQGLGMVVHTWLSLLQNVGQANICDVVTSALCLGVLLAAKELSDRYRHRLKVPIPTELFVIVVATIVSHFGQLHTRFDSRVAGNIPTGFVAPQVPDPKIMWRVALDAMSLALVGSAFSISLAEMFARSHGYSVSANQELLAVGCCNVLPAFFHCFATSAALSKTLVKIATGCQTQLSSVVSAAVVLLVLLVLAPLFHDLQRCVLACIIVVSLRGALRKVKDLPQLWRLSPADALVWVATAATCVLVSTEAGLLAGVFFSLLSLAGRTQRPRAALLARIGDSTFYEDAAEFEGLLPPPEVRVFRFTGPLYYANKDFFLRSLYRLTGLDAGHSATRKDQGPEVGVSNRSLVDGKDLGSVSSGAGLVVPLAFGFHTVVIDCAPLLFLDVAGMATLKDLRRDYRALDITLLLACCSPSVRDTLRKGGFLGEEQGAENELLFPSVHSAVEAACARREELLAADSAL
Procedure: YFP-based cellular assays of slc26a3, slc26a4, SLC26A9, and TMEM16A function were performed as described previously ([7]). Slc26a1 and slc26a2 assays were done in transfected HEK 293 cells (see Supplemental Methods for details). Niflumic acid was used as a positive control for SLC26A isoforms ([7]). For TMEM16A, the selective small-molecule inhibitor TMinh-23 was used as a positive control ([28]). The activities of ENaC, CFTR, and CaCC were determined using well-differentiated HBE cells as described previously ([13]). Cl^–/HCO3^– exchange was measured as described previously ([7], [10], [11]). Briefly, cell cytoplasm was labeled with the pH-sensitive fluorescent dye BCECF-AM (Invitrogen), and Cl^–/HCO3^– exchange was measured in response to addition of a gluconate-containing solution to drive exchange of cytoplasmic Cl^– for extracellular HCO3^–, producing cytoplasmic alkalinization.
Slc26a1 and slc26a2 cDNA constructs
The complementar y DNA sequences of slc26a1 and slc26a2 were generated using gB LOCK gene fragments (Int egrat ed DNA technology, Coralville, IA) in the plasmid vector pIRESpuro3 (Takara, San J ose, CA). […]
PBS. […] Background-corrected, area-integrat ed single cell fluorescence was calcul ated for determination of slc26a1 / slc26a2 activit y from the rate of fluorescence quenching. […]

[1] = tested on: loperamide-induced constipation in mice; test: Loperamide model of constipation; type: in vivo, mouse; conditions: 10 mg/kg, oral, stool collected over 3 hours
Procedure: Wild-type CD1 mice were administered loperamide (0.3 mg/kg, intraperitoneally) in PBS containing 5% ethanol (0.1 mg/mL final concentration) to induce constipation ([9], [30]). PAT1inh-B01 and DRAinh-A270, individually or together (10 mg/kg each, in saline containing 5% DMSO and 10% Kolliphor HS 15), or vehicle control were administered by oral gavage 1 hour before loperamide. After loperamide injection mice were placed individually in metabolic cages with free access to food and water. Stool samples were collected for 3 hours, and total stool weight and number of fecal pellets were quantified. To measure stool water content, stool samples were dried at 80°C for 24 hours and water content was calculated as follows: (wet weight – dry weight)/wet weight ([9], [30]).

effect on slc26a1 activity (slc26a1): did not affect
Compound: Cc1c(Br)c(C(F)(F)F)nn1CC(=O)N1CCc2nc3cc(-c4ccccc4)[nH]n3c(=O)c2C1 [PAT1inh-B01]
effect on stool parameters (weight, number of pellets, water content) [1]: did not affect
